Data published in patent publication US8158389B2, “Products and methods for in vivo secretion of monatin” (priority 2005, dated 2012).
Marks after values point to notes of the source that are not given here.

Experiments:
[1] = tested on: C. glutamicum 13032::aspC/proA/pEKEX2-2; test: Monatin excretion using ethambutol; format: cell-based, Corynebacterium glutamicum
Procedure: (§1) Microbiol 151:342-347, (1989). […] The pH was adjusted to 7.0.
Conditions for the treatments included 30° C. throughout the experiment and 250 rpm agitation. Ethambutol (10 mg/L) was added either prior to inoculation of shake flasks or at the first feeding time when tryptophan and pyruvate were added. […] Additions of 1 g L-tryptophan, 10 g/L sodium pyruvate, 0.04 mM pyridoxal-5′-phosphate (“PLP”), were made 3 hours following induction.

[2] = tested on: C. glutamicum ATCC 13032 transformed with aspCProA pEKEX-2; test: Monatin efflux with biotin and ampicillin treatments; format: cell-based, Corynebacterium glutamicum; details: Ampicillin 10 μg/mL
Procedure: C. glutamicum ATCC 13032 strains transformed with aspCProA pEKEX-2 were grown overnight in LB medium supplemented with 50 μg/mL kanamycin incubated at 30° C. and shaking at 250 rpm. […] Microbiol 151:342-347, (1989). […] The pH was adjusted to 7.0.
Additions of 1.0 g L-tryptophan and 5 g/L sodium pyruvate and ampicillin (either 0 or 10 μg/ml) were made 3 hours following induction.

E. coli BL21DE3 AP pET32 = test: Monatin excretion with Tween 20, E. coli BL21DE3 with or without Arabidopsis auxin transporter gene; format: cell-based, Escherichia coli; details: 0.2% Tween 20
Procedure: For inoculum preparation, the E. coli strains were grown overnight at 37° C. and 250 rpm in Luria-Bertani (“LB”) medium with 100 μg/mL ampicillin and 50 μg/mL kanamycin. For the experimental treatments, Trp-1+glucose medium, a minimal medium that has been used for increased production of tryptophan in E. coli cells (Zeman, et al. Folia Microbiol. 35:200-204, (1990)), was prepared as follows. To 800 mL nanopure water the following reagents were added: 2 g (NH4)2SO4 and 13.6 g KH2PO4. The pH was adjusted to 7.0, the volume was increased to 948 mL, and the medium was autoclaved. Following sterilization, 0.2 g MgSO4.7H2O, 0.01 g CaCl2.2H2O, and 0.5 mg FeSO4.7H2O were added to the medium in a 1.8 mL volume followed by addition of 0.2 mL of Neidhardt's micronutrient solution. Neidhardt F. C., et al., “Culture medium for Enterobacteria,” J. Bacteriol. 119:736-746, (1974). Neidhardt's medium includes (per liter): 0.18 g (NH4)6(MO7)24.4H2O, 1.24 g H3BO3, 0.36 g CoCl2.6H2O, 0.12 g CuSO4 (anhydrous), 0.8 g MnCl2.4H2O, and 0.14 g ZnSO4.7H2O. A 50% glucose solution was prepared separately and sterile-filtered. Forty mL of glucose solution and 10 mL of 1 M 3-Morpholinopropanesulfonic acid (“MOPS”) buffer were added to the base medium (950 mL) for a 1 L final volume.
Conditions for the treatments included 250 rpm agitation throughout and 37° C. up to induction, then, 30° C. following induction. At 0.54-0.62 OD600 nm, induction of the plasmid genes was initiated. At induction, 1.0 mM IPTG, 0.5% L-arabinose, 0.5 mM pyridoxine hydrochloride, and 0.2 mLs of Balch's vitamins were added. Additions of 10 g/L L-tryptophan, 10 g/L sodium pyruvate, 0.04 mM pyridoxal-5′-phosphate (“PLP”) and 0 or 0.2% Tween® 20 (polyoxyethylene 20-sorbitan monolaurate) were made 3 hours following induction.

[3] = tested on: C. glutamicum 13032 transformed with aspCProA pEKEX-2; test: Monatin efflux with increased temperature and sodium pyruvate; format: cell-based, Corynebacterium glutamicum
Procedure: as §1
Conditions for treatments included 30° or 35° C. throughout the experiment and 250 rpm agitation. At an OD600 nm, between 0.45-0.51, induction of the monatin operon genes was initiated. […] Additions of 1.0 g L-tryptophan, 10 or 15 g/L sodium pyruvate, 0.04 mM pyridoxal-5′-phosphate (“PLP”), were made 3 hours and also at 24 hours following induction. A total of 20 or 30 g/L sodium pyruvate was added to each flask by adding 10 or 15 g/l at each of the two feeding times.

[4] = ethambutol 10 mg/L with 0.2% Tween 20 and 10 μg/ml ampicillin, n = 2
[5] = ethambutol 10 mg/L, another 10 g/L sodium pyruvate at 24 hours, n = 2
[6] = Arabidopsis auxin transporter gene on pProNde del, n = 3
[7] = no auxin transporter gene on pProNde del, n = 3

## CC[C@@H](CO)NCCN[C@@H](CC)CO [ethambutol]
[1]; Tween/ampicillin treatment with 10 mg/L ethambutol vs same treatment without ethambutol, 48 hours
  greater monatin excreted per dry cell weight: 12 fold
[1]; [4]
  Monatin/dry cell weight, 24 hours: 6.94 mg/g
  Monatin/dry cell weight, 30 hours: 8.80 mg/g
  Monatin/dry cell weight, 48 hours: 9.14 mg/g
[1]; [5]
  Monatin/dry cell weight, 24 hours: 1.04 mg/g
  Monatin/dry cell weight, 31 hours: 1.53 mg/g
  Monatin/dry cell weight, 48 hours: 2.19 mg/g
[1]; ethambutol 10 mg/L, n = 2
  Monatin/dry cell weight, 24 hours: 1.16 mg/g
  Monatin/dry cell weight, 31 hours: 1.15 mg/g
  Monatin/dry cell weight, 48 hours: 1.06 mg/g

## CC1(C)S[C@@H]2[C@H](NC(=O)[C@H](N)c3ccccc3)C(=O)N2[C@H]1C(=O)O [Ampicillin, ampicillin]
[2]; Biotin 1 μg/L
  Monatin/dry cell weight, 24 hours: 16.2 mg/g
  Monatin/dry cell weight, 48 hours: 13.5 mg/g
[2]; Biotin 200 μg/L
  Monatin/dry cell weight, 24 hours: 12.1 mg/g
  Monatin/dry cell weight, 48 hours: 9.3 mg/g

## polyoxyethylene 20-sorbitan monolaurate [Tween ® 20]
E. coli BL21DE3 AP pET32; Arabidopsis auxin transporter gene on pProNde del, n = 2
  Monatin/dry cell wt., 30 hours: 26.7* mg/g
E. coli BL21DE3 AP pET32; [6]
  Monatin/dry cell wt., 24 hours: 29.4 mg/g
  Monatin/dry cell wt., 48 hours: 19.7 mg/g
E. coli BL21DE3 AP pET32; [7]
  Monatin/dry cell wt., 24 hours: 2.2 mg/g
  Monatin/dry cell wt., 30 hours: 2.5 mg/g
  Monatin/dry cell wt., 48 hours: 2.2 mg/g

## CC(=O)C(=O)[O-].[Na+] [pyruvate, sodium pyruvate]
[3]; 30° C., 20 g/L pyruvate
  Monatin/dry cell weight, 24 hours: 0.2 mg/g
  Monatin/dry cell weight, 31 hours: 2.1 mg/g
  Monatin/dry cell weight, 48 hours: 2.7 mg/g
  Monatin/dry cell weight, 54 hours: 2.7 mg/g
[3]; 30° C., 30 g/L pyruvate
  Monatin/dry cell weight, 24 hours: 0.3 mg/g
  Monatin/dry cell weight, 31 hours: 1.8 mg/g
  Monatin/dry cell weight, 48 hours: 4.3 mg/g
  Monatin/dry cell weight, 54 hours: 4.7 mg/g
[3]; 35° C., 20 g/L pyruvate
  Monatin/dry cell weight, 24 hours: 5.4 mg/g
  Monatin/dry cell weight, 31 hours: 14.7 mg/g
  Monatin/dry cell weight, 48 hours: 23.5 mg/g
  Monatin/dry cell weight, 54 hours: 23.8 mg/g
[3]; 35° C., 30 g/L pyruvate
  Monatin/dry cell weight, 24 hours: 5.8 mg/g
  Monatin/dry cell weight, 31 hours: 18.1 mg/g
  Monatin/dry cell weight, 48 hours: 29.4 mg/g
  Monatin/dry cell weight, 54 hours: 35.2 mg/g
